The target in test [1] is T1, IRE1a (Homo sapiens, UniProt O75460).
T1 construct: purchased SignalChem
As to the kind of experiment: In vitro FRET assay (IRE1a cleavage of XBP1 RNA probe). The class given is biochemical. Particulars: 2 nM SignalChem IRE1a, tested as Formic Acid Salt (37: HCl Salt). As for the experimental part:
In vitro FRET assay was performed to evaluate the ability of select compounds to inhibit IRE1, the results of which are summarized in Table 3. To perform the in vitro FRET assay, 1× complete assay buffer (CAB: […], 50 mM sodium citrate pH 7.15, 1 mM magnesium acetate, 0.02% tween 20) was used to SignalChem IRE1a protein to a final concentration of 2 nM. Selected compounds were serially diluted with DMSO in a non-binding black 384-well plate for a total of 15 ul in each well. 2 ul of the serially diluted compound or DMSO control were then added to new wells containing 98 ul of 1× CAB, for a total volume of 100 ul, 10 ul of which were then transferred to wells of a new plate. 5 ul of the diluted IRE1a was then added to each well. 5 ul of a […] XBP1 RNA probe was then added to each well. Fluorescence was then read over 30 minutes in kinetic mode (485/515 nm).
Two RNA probes were used, XBP1 wildtype (SEQ ID NO: 2) which is able to be spliced by active IRE1a or XBP1 mutant (SEQ ID NO: 3) which is unable to be spliced. Each probe contained a 5′ 6-FAM modification and a 3′ IOWA black FQ modification. […]

The subject of test [2] is IRE1a. Description: IRE1a Endoribonuclease Nanoluciferase Assay (XBP1 luciferase reporter in 293T cells). The class given is cell-based, human. Particulars: ER stressor, tested as Formic Acid Salt (37: HCl Salt). As for the experimental part: Compounds disclosed herein assessed for disruption of IRE1 signaling using a IRE1a Endoribonuclease Nanoluciferase Assay. Briefly, 25×10^5 293T cells were seeded in a 10 cm^2 tissue culture plate. About 24 hours later, the cells were transfected with Effectene. In a 15 mL tube, the following was added: 2 ug XBP1 luciferase reporter plasmid (PGK-Luc2-P2A-XBP1u-Nanoluciferase-Pest); 300 ul EC buffer; and 16 ul Enhancer, followed by incubation at room temp for 5 minutes. Next, 60 ul Effectene (Qiagen 301427) was added, followed by incubation at room temperature for 10 minutes. 2.6 mL cDMEM media was added. Old media was aspirated from the cells, followed by addition of 7 mL fresh media. Full transfection mixture was added dropwise to cells. Cells were incubated for 6 hours, followed by trypsinization, centrifugation and resuspension in 11 mL fresh cDMEM media. 100 uL of cells were plated per a well in a 96 well plate. A day later, ER stressors of choice +/−inhibitors were added. To harvest, media was aspirated from cells completely, then 50 uL 1× passive lysis buffer (Promega: E1941) was added per well and put on shaker (300 rpm) for 30 minutes at room temperature. Cells were centrifuged, and 15 uL sample per well was added to a new, opaque white 384 well plate (Corning 3570). 15 uL OneGlo (nanoluciferase kit, Promega N1630) was added. Plates were spun down, placed on shaker (300 rpm) for 10 minutes. Plates were read on luminometer, 1000 ms integration time per well. 15 uL Stop an Glo (nanoluciferase kit) was added. Plates were spun down, placed on shaker (300 rpm) for 10 minutes. Plates were read on luminometer, 1000 ms second integration time per well. Recordings are provided below in Table 4.

T1 sequence (O75460 19-977): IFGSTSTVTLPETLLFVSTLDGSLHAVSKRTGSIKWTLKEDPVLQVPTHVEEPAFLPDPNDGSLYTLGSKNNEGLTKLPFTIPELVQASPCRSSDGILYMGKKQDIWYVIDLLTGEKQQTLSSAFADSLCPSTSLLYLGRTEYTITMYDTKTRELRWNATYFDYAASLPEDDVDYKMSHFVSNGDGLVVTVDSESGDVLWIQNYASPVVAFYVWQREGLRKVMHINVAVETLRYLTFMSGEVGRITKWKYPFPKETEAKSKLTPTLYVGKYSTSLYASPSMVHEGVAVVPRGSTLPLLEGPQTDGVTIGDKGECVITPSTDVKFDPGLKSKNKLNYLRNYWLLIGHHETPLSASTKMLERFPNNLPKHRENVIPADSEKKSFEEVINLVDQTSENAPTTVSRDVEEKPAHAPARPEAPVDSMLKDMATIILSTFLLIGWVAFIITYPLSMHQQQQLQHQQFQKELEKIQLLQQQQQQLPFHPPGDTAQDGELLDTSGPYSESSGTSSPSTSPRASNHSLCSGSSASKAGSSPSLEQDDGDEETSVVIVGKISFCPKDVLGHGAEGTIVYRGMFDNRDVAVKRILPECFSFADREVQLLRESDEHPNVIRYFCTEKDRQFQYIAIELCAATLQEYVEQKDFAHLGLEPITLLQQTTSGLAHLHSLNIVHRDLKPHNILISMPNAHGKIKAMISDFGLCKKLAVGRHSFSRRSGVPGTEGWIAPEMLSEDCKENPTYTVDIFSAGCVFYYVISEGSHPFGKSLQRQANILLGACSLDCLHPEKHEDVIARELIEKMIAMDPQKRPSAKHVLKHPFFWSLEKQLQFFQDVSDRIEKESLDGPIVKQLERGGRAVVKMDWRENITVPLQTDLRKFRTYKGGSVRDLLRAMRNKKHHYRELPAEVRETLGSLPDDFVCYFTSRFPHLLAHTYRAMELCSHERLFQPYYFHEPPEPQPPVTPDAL

In the case of `COc1nc(NS(=O)(=O)c2ccccc2Cl)c(F)cc1-c1cc(F)c2nc(N[C@H]3CC[C@H](N(C)C)CC3)ncc2c1` [Compound 155, 2-chloro-N-(5-(2-(((1r,4r)-4-(dimethylamino)cyclohexyl)amino)-8-fluoroquinazolin-6-yl)-3-fluoro-6-methoxypyridin-2-yl)benzenesulfonamide], the IC50 in test [1] is ≤ 5 nM. In addition, the EC50 in test [2] (Homo sapiens, HEK-293T) fell in the range of 50 to 100 nM.
With `CCc1cc(-c2cc(OC)c(NS(=O)(=O)c3ccccc3Cl)nn2)cc2cnc(N[C@H]3CC[C@H](N)CC3)nc12` [Compound 66, N-(6-(2-(((1r,4r)-4-aminocyclohexyl)amino)-8-ethylquinazolin-6-yl)-4-methoxypyridazin-3-yl)-2-chlorobenzene-sulfonamide], the half-maximal inhibitory concentration (IC50) in test [1] was ≤ 5 nM. In addition, the EC50 in test [2] (Homo sapiens, HEK-293T) fell in the range of 50 to 100 nM.
On to `CCc1cc(-c2ccc(NS(=O)(=O)c3ccccc3C)nc2OC)cc2cnc(N[C@H]3CC[C@H](NC)CC3)nc12` [Compound 118, N-(5-(8-ethyl-2-(((1r,4r)-4-(methylamino)cyclohexyl)amino)quinazolin-6-yl)-6-methoxypyridin-2-yl)-2-methylbenzenesulfonamide], for which, in test [1], the IC50 is ≤ 5 nM. Also, the EC50 in test [2] (Homo sapiens, HEK-293T) is ≤ 5 nM.
As for `CCc1cc(-c2ccc(NS(=O)(=O)c3ccccc3Cl)nn2)cc2cnc(N[C@H]3CC[C@H](NC)CC3)nc12` [Compound 61, 2-chloro-N-(6-(8-ethyl-2-(((1r,4r)-4-(methylamino)cyclohexyl)amino)quinazolin-6-yl)pyridazin-3-yl)benzene-sulfonamide], the IC50 in test [1] was ≤ 5 nM. Further, the concentration giving a half-maximal response (EC50) in test [2] (Homo sapiens, HEK-293T) is ≤ 5 nM.
Regarding `CCc1cc(-c2ccc(NS(=O)(=O)c3cccc(F)c3Cl)nc2C)cc2cnc(N[C@H]3CC[C@H](N(C)C)CC3)nc12` [Compound 158, 2-chloro-N-(5-(2-(((1r,4r)-4-(dimethylamino)cyclohexyl)amino)-8-ethylquinazolin-6-yl)-6-methylpyridin-2-yl)-3-fluorobenzenesulfonamide], the IC50 in test [1] was ≤ 5 nM. The EC50 in test [2] (Homo sapiens, HEK-293T) is ≤ 5 nM.
For `CCc1cc(-c2ccc(NS(=O)(=O)c3ccccc3Cl)c(F)c2)cc2cnc(N[C@H]3CC4C[C@@H](N)CC4C3)nc12` (stereo partly shown) [Compound 84], the IC50 in test [1] was ≤ 5 nM. For the same compound, the 50% effective concentration (EC50) in test [2] (Homo sapiens, HEK-293T) lay within 5 to 50 nM.
As for `N[C@H]1CC[C@H](Nc2ncc3cc(-c4nnc(NS(=O)(=O)c5ccccc5Cl)s4)ccc3n2)CC1` [Compound 89, N-(5-(2-(((1r,4r)-4-aminocyclohexyl)amino)quinazolin-6-yl)-1,3,4-thiadiazol-2-yl)-2-chlorobenzene-sulfonamide], the IC50 in test [1] is ≤ 5 nM. Also, in test [2] (Homo sapiens, HEK-293T), the concentration for a half-maximal effect (EC50) lay in the range of 100 to 10000 nM.
As for `N[C@H]1CC[C@H](Nc2ncc3cc(-c4ccc(NS(=O)(=O)c5ccccc5Cl)c(F)c4F)ccc3n2)CC1` [Compound 56, N-(4-(2-(((1r,4r)-4-aminocyclohexyl)amino)quinazolin-6-yl)-2,3-difluorophenyl)-chlorobenzene-sulfonamide], in test [1], the IC50 is ≤ 5 nM. Further, in test [2] (Homo sapiens, HEK-293T), the EC50 was ≤ 5 nM.
As for `CCc1cc(-c2cnc(NS(=O)(=O)c3ccccc3Cl)cc2OC)cc2cnc(N[C@H]3CC[C@H](N)CC3)nc12` [Compound 92, N-(5-(2-(((1r,4r)-4-aminocyclohexyl)amino)-8-ethylquinazolin-6-yl)-4-methoxypyridin-2-yl)-2-chlorobenzene-sulfonamide], the IC50 in test [1] is ≤ 5 nM. In addition, the concentration giving a half-maximal response (EC50) in test [2] (Homo sapiens, HEK-293T) was in the range of 100 to 10000 nM.
For `CCc1cc(-c2ccc(NS(=O)(=O)c3cccc(C)c3Cl)nc2C)cc2cnc(N[C@H]3CC[C@H](N(C)C)CC3)nc12` [Compound 160, 2-chloro-N-(5-(2-(((1r,4r)-4-(dimethylamino)cyclohexyl)amino)-8-ethylquinazolin-6-yl)-6-methylpyridin-2-yl)-3-methylbenzenesulfonamide], the concentration for half-maximal inhibition (IC50) in test [1] was ≤ 5 nM. The EC50 in test [2] (Homo sapiens, HEK-293T) is ≤ 5 nM.
Turning to `N[C@H]1CC2C[C@@H](Nc3ncc4cc(-c5ccc(NS(=O)(=O)c6ccccc6Cl)c(F)c5)ccc4n3)CC2C1` (stereo partly shown) [Compound 85, N-(4-(2-(((2s,5s)-5-aminooctahydro-pentalen-2-yl)amino)quinazolin-6-yl)-2-fluorophenyl)-2-chlorobenzene-sulfonamide], the IC50 in test [1] is ≤ 5 nM. For the same compound, the concentration giving a half-maximal response (EC50) in test [2] (Homo sapiens, HEK-293T) was 100 to 10000 nM.
For `CCc1cc(-c2ccc(NS(=O)(=O)c3ccccc3Cl)c(F)c2)cc2cnc(N[C@@H]3CCC[C@H](N)C3)nc12` [Compound 72, N-(4-(2-(((1R,3S)-3-aminocyclohexyl)amino)-8-ethylquinazolin-6-yl)-2-fluorophenyl)-2-chlorobenzene-sulfonamide], in test [1], the IC50 was ≤ 5 nM. For the same compound, the concentration for a half-maximal effect (EC50) in test [2] (Homo sapiens, HEK-293T) is 100 to 10000 nM.
Turning to `O=S(=O)(Nc1ccc(-c2ccc3nc(N[C@H]4CCCNC4)ncc3c2)cc1F)c1ccccc1Cl` [Compound 76, (S)-2-chloro-N-(2-fluoro-4-(2-(piperdin-3-ylamino)quinazolin-6-yl)phenyl) benzenesulfon-amide], in test [1], the concentration for half-maximal inhibition (IC50) is ≤ 5 nM. For the same compound, the EC50 in test [2] (Homo sapiens, HEK-293T) fell in the range of 5 to 50 nM.
Regarding `COCc1cc(-c2ccc(NS(=O)(=O)c3ccccc3Cl)nc2OC)cc2cnc(N[C@H]3CC[C@H](N(C)C)CC3)nc12` [Compound 137, 2-chloro-N-(5-(2-(((1r,4r)-4-(dimethylamino)cyclohexyl)amino)-8-(methoxymethyl)quinazolin-6-yl)-6-methoxypyridin-2-yl)benzenesulfonamide], the IC50 in test [1] was ≤ 5 nM. The EC50 in test [2] (Homo sapiens, HEK-293T) is ≤ 5 nM.
In the case of `CCc1cc(-c2ccc(NS(=O)(=O)c3ccccc3C)nc2OC)cc2cnc(N[C@H]3CC[C@H](N(C)C)CC3)nc12` [Compound 119, N-(5-(2-(((1r,4r)-4-(dimethylamino)cyclohexyl)amino)-8-ethylquinazolin-6-yl)-6-methoxypyridin-2-yl)-2-methylbenzenesulfonamide], the IC50 in test [1] is ≤ 5 nM. In addition, in test [2] (Homo sapiens, HEK-293T), the EC50 is ≤ 5 nM.
`CCc1cc(-c2ccc(NS(=O)(=O)c3ccccc3Cl)c(F)c2)cc2cnc(N[C@H]3CC[C@H](N4CCCC4)CC3)nc12` [Compound 88, 2-chloro-N-(4-(8-ethyl-2-(((1r,4r)-4-(pyrrolidin-1-yl)cyclohexyl)amino)quinazolin-6-yl)-2-fluorophenyl) benzenesulfon-amide]: the IC50 in test [1] was ≤ 5 nM. In addition, the EC50 in test [2] (Homo sapiens, HEK-293T) is ≤ 5 nM.
Take `CCc1cc(-c2ccc(NS(=O)(=O)c3ccccc3Cl)c(F)c2)cc2cnc(N[C@H]3CC4C[C@H](N)CC4C3)nc12` (stereo partly shown) [Compound 82, N-(4-(2-((4-5-aminooctahydro-pentalen-2-yl)amino)-8-ethylquinazolin-6-yl)-2-fluorophenyl)-2-chlorobenzene-sulfonamide]: in test [1], the IC50 was ≤ 5 nM. Further, the concentration for a half-maximal effect (EC50) in test [2] is 5 to 50 nM.
Consider `CCc1cc(-c2cc(NS(=O)(=O)c3ccccc3Cl)no2)cc2cnc(N[C@H]3CC[C@H](N)CC3)nc12` [Compound 44, N-(5-(2-(((1r,4r)-4-aminocyclohexyl)amino)-8-ethylquinazolin-6-yl)isoxazol-3-yl)-2-chlorobenzene-sulfonamide], for which, in test [1], the half-inhibitory concentration (IC50) is ≤ 5 nM. Further, the 50% effective concentration (EC50) in test [2] (Homo sapiens, HEK-293T) is ≤ 5 nM.
Consider `COc1nc(NS(=O)(=O)c2ccccc2Cl)ccc1-c1cc(C)c2nc(N[C@H]3CC[C@H](N(C)C)CC3)ncc2c1` [Compound 133, 2-chloro-N-(5-(2-(((1r,4r)-4-(dimethylamino)cyclohexyl)amino)-8-methylquinazolin-6-yl)-6-methoxypyridin-2-yl)benzenesulfonamide], for which the half-inhibitory concentration (IC50) in test [1] was ≤ 5 nM. For the same compound, in test [2] (Homo sapiens, HEK-293T), the EC50 was ≤ 5 nM.
Consider `N[C@H]1CC[C@@H](Nc2ncc3cc(-c4ccc(NS(=O)(=O)c5ccccc5Cl)c(F)c4)ccc3n2)C1` [Compound 80, N-(4-(2-(((1R,3S)-3-aminocyclopentyl)amino)quinazolin-6-yl)-2-fluorophenyl)-2-chlorobenzene-sulfonamide], for which the concentration giving a half-maximal response (EC50) in test [2] (Homo sapiens, HEK-293T) lay within 100 to 10000 nM.
In the case of `CCc1cc(-c2ccc(NS(=O)(=O)c3ccccc3Cl)c(F)c2)cc2cnc(N[C@H]3CC[C@H](NC(=O)[C@@H](N)C(C)C)CC3)nc12` [Compound 58, (S)-2-amino-N-((1r,4S)-4-((6-(4-((2-chlorophenyl)sulfonamido)-3-fluorophenyl)-8-ethylquinazolin-2-yl)amino)cyclohexyl)-3-methylbutanamide], the EC50 in test [2] (Homo sapiens, HEK-293T) was ≤ 5 nM.
